# Columns and labels:
# [1] = target: CB1; conditions: read-out: Ki CB1; antagonist on CB1; ref Dhopeshwarkar et al., 2017; cited from earlier work
# [2] = target: T1, CB2 (Homo sapiens, UniProt P34972); conditions: read-out: Ki CB2; partial agonist on CB2; ref Dhopeshwarkar et al., 2017; cited from earlier work
# [3] = target: T1, CB2; assay: cell-based; assay type: cell-based; conditions: for functional behaviour at CB2: cAMP functional assay
# T1 sequence (P34972 whole entry): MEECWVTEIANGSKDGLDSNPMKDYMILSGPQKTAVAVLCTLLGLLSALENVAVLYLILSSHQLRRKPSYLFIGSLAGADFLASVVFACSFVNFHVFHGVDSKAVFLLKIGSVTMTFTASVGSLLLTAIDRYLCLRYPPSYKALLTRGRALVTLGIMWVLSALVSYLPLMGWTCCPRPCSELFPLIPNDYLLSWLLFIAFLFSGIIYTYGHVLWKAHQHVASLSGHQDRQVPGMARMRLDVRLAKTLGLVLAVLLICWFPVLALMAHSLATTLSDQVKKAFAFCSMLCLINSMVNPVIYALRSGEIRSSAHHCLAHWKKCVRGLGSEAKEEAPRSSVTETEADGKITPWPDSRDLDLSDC
Compound,Ki [1],Ki [2],EC50 [3],functional behaviour at CB2 [3]
"COc1ccc2c(c1)c(CCN1CCOCC1)c(C)n2C(=O)c1cccc(Cl)c1Cl [GW-405,833]",4.77 ± 1.68 µM,0.00392 ± 0.00158 µM,,
"CCN(CC)c1ccc(CN(Cc2cc(OC)c(OC)c(OC)c2)S(=O)(=O)/C=C/c2ccccc2)cc1 [XIE55, (E)-N-(4-(diethylamino)benzyl)-2-phenyl-N-(3,4,5-trimethoxybenzyl)ethene-1-sulfonamide]",,,1.5 ± 0.4 µM,inverse agonist
"CCN(CC)c1ccc(CN(Cc2cc(OC)c(OC)c(OC)c2)S(=O)(=O)c2cccs2)cc1 [XIE57, N-(4-(diethylamino)benzyl)-N-(3,4,5-trimethoxybenzyl)thiophene-2-sulfonamide]",,,6.9 ± 2.9 µM,partial agonist
